Assay results published in PubChem BioAssay (NCI).
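These data come from cells grown in 96-well plates and exposed to compound for 48 hours at five concentrations. GI50 = concentration required for 50% inhibition of growth. TGI denotes the concentration required for complete inhibition of growth.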

Columns and labels:
Assay in all cases: NCI anticancer screen, dose series, 48 h
[1] = tested on: 786-0 renal
[2] = tested on: A498 renal
[3] = tested on: A549 NSCLC
[4] = tested on: ACHN renal
[5] = tested on: BT-549 breast
[6] = tested on: CAKI-1 renal
[7] = tested on: CCRF-CEM leukemia
[8] = tested on: COLO 205 colon
[9] = tested on: DU-145 prostate
[10] = tested on: EKVX NSCLC
[11] = tested on: HCC-2998 colon
[12] = tested on: HCT-116 colon
[13] = tested on: HCT-15 colon
[14] = tested on: HL-60(TB) leukemia
[15] = tested on: HOP-62 NSCLC
[16] = tested on: HOP-92 NSCLC
[17] = tested on: HS 578T breast
[18] = tested on: HT29 colon
[19] = tested on: IGROV1 ovarian
[20] = tested on: K-562 leukemia
[21] = tested on: KM12 colon
[22] = tested on: LOX IMVI melanoma
[23] = tested on: M14 melanoma
[24] = tested on: MALME-3M melanoma
[25] = tested on: MCF7 breast
[26] = tested on: MDA-MB-231 breast
[27] = tested on: MDA-MB-435
[28] = tested on: MOLT-4 leukemia
[29] = tested on: NCI-H226 lung
[30] = tested on: NCI-H23 lung
[31] = tested on: NCI-H460 lung
[32] = tested on: NCI-H522 lung
[33] = tested on: NCI/ADR-RES ovarian
[34] = tested on: OVCAR-3 ovarian
[35] = tested on: OVCAR-4 ovarian
[36] = tested on: OVCAR-5 ovarian
[37] = tested on: OVCAR-8 ovarian
[38] = tested on: PC-3 prostate
[39] = tested on: RPMI-8226 leukemia
[40] = tested on: RXF 393 renal
[41] = tested on: SF-268 CNS
[42] = tested on: SF-295 CNS
[43] = tested on: SF-539 CNS
[44] = tested on: SK-MEL-2 melanoma
[45] = tested on: SK-MEL-28 melanoma
[46] = tested on: SK-MEL-5 melanoma
[47] = tested on: SK-OV-3 ovarian
[48] = tested on: SN12C renal
[49] = tested on: SNB-19 CNS
[50] = tested on: SNB-75 CNS
[51] = tested on: SR leukemia
[52] = tested on: SW-620 colon
[53] = tested on: T-47D breast
[54] = tested on: TK-10 renal
[55] = tested on: U251 CNS
[56] = tested on: UACC-257 melanoma
[57] = tested on: UACC-62 melanoma
[58] = tested on: UO-31 renal

## O=S1CCN(Cc2ccc(-c3ccc4ncnc(Nc5ccc(OCc6cccc(F)c6)c(Cl)c5)c4c3)o2)CC1
[1]
  GI50: 6.54 µM
  TGI: > 25 µM
[2]
  GI50: 0.862 µM
  TGI: > 16.7 µM
[3]
  GI50: 5.92 µM
  TGI: > 25 µM
[4]
  GI50: 0.082 µM
  TGI: > 25 µM
[5]
  GI50: 6.2 µM
  TGI: > 23.9 µM
[6]
  GI50: 0.041 µM
  TGI: > 25 µM
[7]
  GI50: 6.89 µM
  TGI: 24.8 µM
[8]
  GI50: 4.77 µM
  TGI: 13.5 µM
[9]
  GI50: 4.26 µM
  TGI: > 25 µM
[10]
  GI50: 0.0304 µM
  TGI: > 25 µM
[11]
  GI50: 5.34 µM
  TGI: 14.7 µM
[12]
  GI50: 8.66 µM
  TGI: > 25 µM
[13]
  GI50: 5.77 µM
  TGI: > 25 µM
[14]
  GI50: 6.3 µM
  TGI: 15.7 µM
[15]
  GI50: 14.8 µM
  TGI: > 25 µM
[16]
  GI50: 3.95 µM
  TGI: 22.4 µM
[17]
  GI50: 4.63 µM
  TGI: > 21.6 µM
[18]
  GI50: 4.22 µM
  TGI: 10.8 µM
[19]
  GI50: 0.226 µM
  TGI: 5.29 µM
[20]
  GI50: 6.53 µM
  TGI: > 25 µM
[21]
  GI50: 6.72 µM
  TGI: > 22.8 µM
[22]
  GI50: 4.65 µM
  TGI: 10.5 µM
[23]
  GI50: 5.84 µM
  TGI: > 18.6 µM
[24]
  GI50: 6.01 µM
  TGI: 23.2 µM
[25]
  GI50: 6.1 µM
  TGI: > 25 µM
[26]
  GI50: 5.19 µM
  TGI: > 16.1 µM
[27]
  GI50: 7.1 µM
  TGI: > 25 µM
[28]
  GI50: 4.94 µM
  TGI: > 20.1 µM
[29]
  GI50: 4.4 µM
  TGI: > 25 µM
[30]
  GI50: 8.42 µM
  TGI: > 25 µM
[31]
  GI50: 7.62 µM
  TGI: > 25 µM
[32]
  GI50: 0.647 µM
  TGI: 15.8 µM
[33]
  GI50: 4.82 µM
  TGI: > 25 µM
[34]
  GI50: 4.86 µM
  TGI: > 25 µM
[35]
  GI50: 5.26 µM
  TGI: > 25 µM
[36]
  GI50: 5.8 µM
  TGI: > 25 µM
[37]
  GI50: 7.68 µM
  TGI: > 25 µM
[38]
  GI50: 8.91 µM
  TGI: > 25 µM
[39]
  GI50: 6.65 µM
  TGI: > 22.8 µM
[40]
  GI50: 3.85 µM
  TGI: > 23.6 µM
[41]
  GI50: 8.56 µM
  TGI: > 25 µM
[42]
  GI50: 5.83 µM
  TGI: > 19 µM
[43]
  GI50: 6.54 µM
  TGI: > 20.9 µM
[44]
  GI50: 4.41 µM
  TGI: 9.97 µM
[45]
  GI50: 5.75 µM
  TGI: > 25 µM
[46]
  GI50: 3.09 µM
  TGI: 6.42 µM
[47]
  GI50: 0.00587 µM
  TGI: > 25 µM
[48]
  GI50: 7.77 µM
  TGI: > 25 µM
[49]
  GI50: > 7.82 µM
  TGI: > 25 µM
[50]
  GI50: 7.92 µM
  TGI: > 25 µM
[51]
  GI50: 5.38 µM
  TGI: 17.5 µM
[52]
  GI50: 7.34 µM
  TGI: > 25 µM
[53]
  GI50: 1.95 µM
  TGI: 18.3 µM
[54]
  GI50: 0.00776 µM
  TGI: > 16.3 µM
[55]
  GI50: 9.4 µM
  TGI: > 25 µM
[56]
  GI50: 5.43 µM
  TGI: > 20.5 µM
[57]
  GI50: 4.12 µM
  TGI: 10.6 µM
[58]
  GI50: 0.473 µM
  TGI: 24.9 µM
